Source: ChEMBL document CHEMBL2321780, “Fluorinated quinazolinones as potential radiotracers for imaging kinesin spindle protein expression” (2013)
The source made the active and inactive calls. No cut-off for these calls is given here.

What was measured:
[1] = molecular target: T1, Kinesin-like protein KIF2C (Homo sapiens) (UniProt Q99661); test: Inhibition of MCAK (unknown origin)-mediated ATP hydrolysis assessed as residual activity at 10 uM after 10 to 20 mins by spectrophotometric analysis
T1 sequence (whole entry): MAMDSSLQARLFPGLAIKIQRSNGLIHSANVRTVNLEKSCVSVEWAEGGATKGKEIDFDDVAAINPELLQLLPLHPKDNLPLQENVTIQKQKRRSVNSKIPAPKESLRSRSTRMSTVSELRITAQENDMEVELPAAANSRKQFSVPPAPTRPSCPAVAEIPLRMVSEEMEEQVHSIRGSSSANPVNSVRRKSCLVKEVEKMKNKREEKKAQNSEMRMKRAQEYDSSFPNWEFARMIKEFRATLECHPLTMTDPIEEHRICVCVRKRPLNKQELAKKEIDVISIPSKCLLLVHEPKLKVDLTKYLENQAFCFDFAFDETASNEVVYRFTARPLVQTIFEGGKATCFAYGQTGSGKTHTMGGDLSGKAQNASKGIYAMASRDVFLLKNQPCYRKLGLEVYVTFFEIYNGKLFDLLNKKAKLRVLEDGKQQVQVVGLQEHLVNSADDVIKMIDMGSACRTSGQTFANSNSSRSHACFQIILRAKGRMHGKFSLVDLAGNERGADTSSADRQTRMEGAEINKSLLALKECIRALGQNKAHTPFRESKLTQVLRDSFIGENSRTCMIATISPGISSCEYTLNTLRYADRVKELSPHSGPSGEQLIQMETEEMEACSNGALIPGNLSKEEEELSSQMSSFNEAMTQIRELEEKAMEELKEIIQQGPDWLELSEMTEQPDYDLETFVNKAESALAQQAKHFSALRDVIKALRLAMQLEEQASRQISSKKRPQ

[2] = molecular target: T2, Kinesin-1 heavy chain (Homo sapiens) (UniProt P33176); test: Inhibition of KNH (unknown origin)-mediated ATP hydrolysis assessed as residual activity at 10 uM after 10 to 20 mins by spectrophotometric analysis
T2 sequence (whole entry): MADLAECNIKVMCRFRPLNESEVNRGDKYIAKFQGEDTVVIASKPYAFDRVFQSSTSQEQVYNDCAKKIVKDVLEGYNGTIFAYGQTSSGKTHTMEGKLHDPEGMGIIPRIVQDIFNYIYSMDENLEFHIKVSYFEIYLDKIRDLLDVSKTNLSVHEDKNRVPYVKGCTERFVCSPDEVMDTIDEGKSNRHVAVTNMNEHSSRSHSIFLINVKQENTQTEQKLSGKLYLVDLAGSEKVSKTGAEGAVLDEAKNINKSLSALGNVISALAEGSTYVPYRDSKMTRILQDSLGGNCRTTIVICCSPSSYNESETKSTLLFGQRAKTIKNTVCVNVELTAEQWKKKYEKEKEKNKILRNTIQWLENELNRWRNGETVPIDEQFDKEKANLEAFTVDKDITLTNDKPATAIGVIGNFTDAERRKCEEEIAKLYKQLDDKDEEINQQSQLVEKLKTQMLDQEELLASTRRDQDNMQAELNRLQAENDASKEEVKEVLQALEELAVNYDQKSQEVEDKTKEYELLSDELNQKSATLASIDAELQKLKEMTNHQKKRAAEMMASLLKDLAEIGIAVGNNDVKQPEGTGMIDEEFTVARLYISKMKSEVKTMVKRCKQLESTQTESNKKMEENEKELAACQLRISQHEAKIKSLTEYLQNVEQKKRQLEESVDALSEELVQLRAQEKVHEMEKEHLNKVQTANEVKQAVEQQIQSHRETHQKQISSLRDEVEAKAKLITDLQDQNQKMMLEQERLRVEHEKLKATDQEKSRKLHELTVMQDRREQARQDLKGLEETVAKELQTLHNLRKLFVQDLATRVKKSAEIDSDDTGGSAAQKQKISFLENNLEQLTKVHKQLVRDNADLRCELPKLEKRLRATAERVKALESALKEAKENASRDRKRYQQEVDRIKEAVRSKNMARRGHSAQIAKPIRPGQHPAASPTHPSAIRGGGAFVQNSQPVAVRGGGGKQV

[3] = molecular target: Centromere-associated protein E (Homo sapiens) (UniProt Q02224); test: Inhibition of CENP-E (unknown origin)-mediated ATP hydrolysis assessed as residual activity at 10 uM after 10 to 20 mins by spectrophotometric analysis
[4] = molecular target: T3, Kinesin-like protein KIFC3 (Homo sapiens) (UniProt Q9BVG8); test: Inhibition of KIFC3 (unknown origin)-mediated ATP hydrolysis assessed as residual activity at 10 uM after 10 to 20 mins by spectrophotometric analysis
T3 sequence (whole entry): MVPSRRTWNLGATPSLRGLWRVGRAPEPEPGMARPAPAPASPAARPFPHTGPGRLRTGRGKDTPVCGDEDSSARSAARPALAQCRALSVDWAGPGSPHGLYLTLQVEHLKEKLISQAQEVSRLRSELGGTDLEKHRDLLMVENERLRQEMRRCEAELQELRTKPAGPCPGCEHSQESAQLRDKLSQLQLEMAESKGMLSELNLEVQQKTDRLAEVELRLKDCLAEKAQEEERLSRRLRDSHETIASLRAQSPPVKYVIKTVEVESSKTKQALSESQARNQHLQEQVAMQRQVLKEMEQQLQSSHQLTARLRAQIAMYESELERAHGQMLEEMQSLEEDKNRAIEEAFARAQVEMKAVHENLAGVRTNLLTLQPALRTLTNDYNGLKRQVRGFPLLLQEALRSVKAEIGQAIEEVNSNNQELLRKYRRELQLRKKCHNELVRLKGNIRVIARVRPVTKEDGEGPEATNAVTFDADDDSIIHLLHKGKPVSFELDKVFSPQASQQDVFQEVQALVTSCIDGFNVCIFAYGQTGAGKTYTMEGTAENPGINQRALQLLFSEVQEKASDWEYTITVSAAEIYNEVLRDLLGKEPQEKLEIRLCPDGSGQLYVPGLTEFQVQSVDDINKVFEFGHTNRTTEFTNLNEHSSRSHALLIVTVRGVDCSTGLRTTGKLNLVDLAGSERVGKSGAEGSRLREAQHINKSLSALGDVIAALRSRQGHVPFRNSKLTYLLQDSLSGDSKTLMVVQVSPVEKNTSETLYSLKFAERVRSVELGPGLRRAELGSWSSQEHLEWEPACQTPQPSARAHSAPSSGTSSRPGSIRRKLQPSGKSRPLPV

[5] = system: SK-OV-3; test: Cell cycle arrest in human SKOV3 cells assessed as monoaster phenotype at 100 nM after 22 hrs by confocal microscopic analysis; assay type: functional, cell-based
[6] = system: SK-OV-3; test: Cytotoxicity against human SKOV3 cells assessed as inhibition of KSP-mediated cell cycle progression after 44 hrs by MTT assay; assay type: functional; conditions: SK-OV-3, 44 h
[7] = system: SK-OV-3; test: Nonspecific cytotoxicity against human SKOV3 cells after 44 hrs by MTT assay; assay type: functional; conditions: SK-OV-3, 44 h
[8] = system: DU-145; test: Cytotoxicity against human DU145 cells assessed as inhibition of KSP-mediated cell cycle progression after 44 hrs by MTT assay; assay type: functional; conditions: DU-145, 44 h
[9] = system: MCF7; test: Nonspecific cytotoxicity against human MCF7 cells after 44 hrs by MTT assay; assay type: functional; conditions: MCF7, 44 h
[10] = system: PC-3; test: Cytotoxicity against human PC3 cells assessed as inhibition of KSP-mediated cell cycle progression after 44 hrs by MTT assay; assay type: functional; conditions: PC-3, 44 h
[11] = system: PC-3; test: Nonspecific cytotoxicity against human PC3 cells after 44 hrs by MTT assay; assay type: functional; conditions: PC-3, 44 h
[12] = system: MCF7; test: Cytotoxicity against human MCF7 cells assessed as inhibition of KSP-mediated cell cycle progression after 44 hrs by MTT assay; assay type: functional; conditions: MCF7, 44 h
[13] = system: DU-145; test: Nonspecific cytotoxicity against human DU145 cells after 44 hrs by MTT assay; assay type: functional; conditions: DU-145, 44 h

Sequence of Centromere-associated protein E (Homo sapiens) (Q02224 whole entry): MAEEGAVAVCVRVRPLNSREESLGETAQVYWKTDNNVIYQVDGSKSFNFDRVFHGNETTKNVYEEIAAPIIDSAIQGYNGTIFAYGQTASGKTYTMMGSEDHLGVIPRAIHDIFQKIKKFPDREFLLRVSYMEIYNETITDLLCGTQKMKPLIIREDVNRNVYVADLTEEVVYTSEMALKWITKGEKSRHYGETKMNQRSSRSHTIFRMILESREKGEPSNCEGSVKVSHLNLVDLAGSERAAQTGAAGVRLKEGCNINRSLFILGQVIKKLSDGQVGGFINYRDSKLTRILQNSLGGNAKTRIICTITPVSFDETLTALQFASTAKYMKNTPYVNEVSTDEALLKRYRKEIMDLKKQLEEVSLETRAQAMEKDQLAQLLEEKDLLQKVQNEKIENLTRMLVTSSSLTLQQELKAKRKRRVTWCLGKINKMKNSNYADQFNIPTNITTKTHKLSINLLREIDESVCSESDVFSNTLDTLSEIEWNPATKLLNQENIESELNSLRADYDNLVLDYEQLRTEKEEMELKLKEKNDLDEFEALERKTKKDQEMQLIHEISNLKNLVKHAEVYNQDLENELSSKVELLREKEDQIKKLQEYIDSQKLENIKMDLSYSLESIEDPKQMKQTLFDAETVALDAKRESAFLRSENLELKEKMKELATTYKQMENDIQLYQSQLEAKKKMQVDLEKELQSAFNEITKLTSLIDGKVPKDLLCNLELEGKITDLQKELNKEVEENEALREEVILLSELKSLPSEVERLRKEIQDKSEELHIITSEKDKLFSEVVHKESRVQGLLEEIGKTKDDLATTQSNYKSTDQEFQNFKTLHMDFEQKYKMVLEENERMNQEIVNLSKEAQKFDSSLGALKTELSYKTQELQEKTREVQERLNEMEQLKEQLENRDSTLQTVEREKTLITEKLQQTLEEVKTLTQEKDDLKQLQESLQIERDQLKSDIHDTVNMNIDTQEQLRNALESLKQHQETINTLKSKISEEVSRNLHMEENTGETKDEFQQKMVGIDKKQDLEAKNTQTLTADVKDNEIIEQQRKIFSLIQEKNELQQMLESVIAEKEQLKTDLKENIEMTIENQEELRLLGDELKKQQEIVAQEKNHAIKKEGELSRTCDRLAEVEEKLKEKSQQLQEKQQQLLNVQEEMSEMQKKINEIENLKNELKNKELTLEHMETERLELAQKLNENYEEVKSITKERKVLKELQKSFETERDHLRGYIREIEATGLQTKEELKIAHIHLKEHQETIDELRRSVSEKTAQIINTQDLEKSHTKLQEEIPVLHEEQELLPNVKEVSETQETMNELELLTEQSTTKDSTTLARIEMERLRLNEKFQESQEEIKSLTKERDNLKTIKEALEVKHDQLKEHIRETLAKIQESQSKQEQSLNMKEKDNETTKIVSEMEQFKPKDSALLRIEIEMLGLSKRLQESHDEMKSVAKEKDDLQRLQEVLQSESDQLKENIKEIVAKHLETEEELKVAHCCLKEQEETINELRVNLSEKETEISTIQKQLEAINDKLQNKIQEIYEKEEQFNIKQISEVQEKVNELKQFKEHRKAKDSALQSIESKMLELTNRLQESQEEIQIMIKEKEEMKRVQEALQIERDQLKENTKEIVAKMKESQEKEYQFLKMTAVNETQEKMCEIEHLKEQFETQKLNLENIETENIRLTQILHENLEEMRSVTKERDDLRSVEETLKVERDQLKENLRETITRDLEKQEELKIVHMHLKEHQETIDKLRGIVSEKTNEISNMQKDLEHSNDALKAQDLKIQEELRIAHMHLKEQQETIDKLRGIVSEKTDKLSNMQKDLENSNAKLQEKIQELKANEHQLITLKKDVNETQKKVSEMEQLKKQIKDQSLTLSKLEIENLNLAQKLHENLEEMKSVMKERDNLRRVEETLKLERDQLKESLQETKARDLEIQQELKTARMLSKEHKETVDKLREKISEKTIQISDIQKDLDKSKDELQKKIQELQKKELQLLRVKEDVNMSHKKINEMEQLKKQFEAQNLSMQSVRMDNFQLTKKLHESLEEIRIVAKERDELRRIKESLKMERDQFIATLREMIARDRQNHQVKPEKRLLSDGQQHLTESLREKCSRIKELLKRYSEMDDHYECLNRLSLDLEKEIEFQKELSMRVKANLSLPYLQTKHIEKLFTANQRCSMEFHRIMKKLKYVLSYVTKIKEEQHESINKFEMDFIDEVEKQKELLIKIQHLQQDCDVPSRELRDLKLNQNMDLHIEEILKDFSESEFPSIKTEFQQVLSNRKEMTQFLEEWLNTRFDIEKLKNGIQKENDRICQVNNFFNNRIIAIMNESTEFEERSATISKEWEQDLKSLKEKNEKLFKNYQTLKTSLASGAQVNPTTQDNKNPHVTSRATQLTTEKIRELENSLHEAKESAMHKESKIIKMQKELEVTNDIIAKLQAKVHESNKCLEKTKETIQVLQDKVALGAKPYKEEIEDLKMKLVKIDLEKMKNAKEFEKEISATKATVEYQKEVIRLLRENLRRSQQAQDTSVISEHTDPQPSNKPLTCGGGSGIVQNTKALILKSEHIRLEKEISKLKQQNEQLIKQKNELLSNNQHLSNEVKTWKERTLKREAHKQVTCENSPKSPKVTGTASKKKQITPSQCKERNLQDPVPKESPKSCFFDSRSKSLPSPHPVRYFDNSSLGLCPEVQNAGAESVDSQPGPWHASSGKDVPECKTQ

Activity [1]	Activity [2]	Activity [3]	Activity [4]	Structure (SMILES)	Activity [5]	GI50 [6]	GI50 [7]	GI50 [8]	GI50 [9]	GI50 [10]	GI50 [11]	GI50 [12]	GI50 [13]
97%	98.5%	97.7%	98.3%	CCOC(=O)C1=C(C)NC(=S)N[C@@H]1c1cccc(O)c1	–	–	–	–	–	–	–	–	–
–	–	–	–	CC(C)[C@H](c1nc2cc(Cl)ccc2c(=O)n1Cc1ccccc1)N(CCCN)C(=O)c1cccc(F)c1	Active	–	–	–	–	–	–	–	–
–	–	–	–	CC(C)C(c1nc2cc(Cl)ccc2c(=O)n1Cc1ccccc1)N(CCCN)C(=O)c1ccccc1F (racemic)	–	0.0356 µM	3.1 µM	0.0485 µM	1.9 µM	0.0019 µM	0.35 µM	0.0177 µM	–
–	–	–	–	CC(C)C(c1nc2cc(Cl)ccc2c(=O)n1Cc1ccccc1)N(CCCN)C(=O)c1ccc(F)cc1 (racemic)	–	2.7 µM	4.3 µM	1.1 µM	2.7 µM	1.1 µM	6.3 µM	4 µM	3.1 µM
